Assay results from patent publication US10004701B2, “Methods and compositions for treating infection” (UNIVERSITY OF ROCHESTER, priority 2012, dated 2018).
Structures can show the parent of a compound that is named as a salt. Where two headings read alike, the source gives them in different places.

Legend:
Assay in all cases: AK assay 384-well format, Prestwick library screening
[1] = tested on: A. baumannii strain 98-37-09; format: cell-based, Acinetobacter baumannii; settings: 50 μM final drug concentration; for fold induction at 50 µM: Acinetobacter baumannii, 983709, 3 h
P. aeruginosa = format: cell-based, Pseudomonas aeruginosa; settings: 50 μM final drug concentration; for fold induction at 50 µM: Pseudomonas aeruginosa, 3 h
E. coli = format: cell-based, Escherichia coli; settings: 50 μM final drug concentration; for fold induction at 50 µM: Escherichia coli, 3 h
K. pneumoniae = format: cell-based, Klebsiella pneumoniae; settings: 50 μM final drug concentration; for fold induction at 50 µM: Klebsiella pneumoniae, 3 h
[2] = tested on: S. aureus strain USA300-0114; format: cell-based, Staphylococcus aureus; settings: 50 μM final drug concentration; for fold induction at 50 µM: Staphylococcus aureus, USA300, 3 h
E. faecium = format: cell-based, Enterococcus faecium; settings: 50 μM final drug concentration; for fold induction at 50 µM: Enterococcus faecium, 3 h
E. cloacae = format: cell-based, Enterobacter cloacae; settings: 50 μM final drug concentration; for fold induction at 50 µM: Enterobacter cloacae, 3 h
[3] = planktonic A. baumannii, cutoff for positive-scoring molecules 3-fold increase, read-out: AK-based Prestwick Library Screening Results, A. baumannii (increase in extracellular AK activity)
[4] = planktonic P. aeruginosa, cutoff for positive-scoring molecules 3-fold increase, read-out: AK-based Prestwick Library Screening Results, P. aeruginosa (increase in extracellular AK activity)
[5] = planktonic E. coli, cutoff for positive-scoring molecules 3-fold increase, read-out: AK-based Prestwick Library Screening Results, E. coli (increase in extracellular AK activity)
[6] = planktonic K. pneumoniae, cutoff for positive-scoring molecules 3-fold increase, read-out: AK-based Prestwick Library Screening Results, K. pneumoniae (increase in extracellular AK activity)
[7] = planktonic S. aureus, cutoff for positive-scoring molecules 3-fold increase, read-out: AK-based Prestwick Library Screening Results, S. aureus (increase in extracellular AK activity)
[8] = planktonic E. faecium, cutoff for positive-scoring molecules 3-fold increase, read-out: AK-based Prestwick Library Screening Results, E. faecium (increase in extracellular AK activity)
[9] = planktonic E. cloacae, cutoff for positive-scoring molecules 3-fold increase, read-out: AK-based Prestwick Library Screening Results, E. cloacae (increase in extracellular AK activity)
[10] = planktonic E. coli, […], read-out: AK-based Prestwick library screening result, E. coli (fold increase in extracellular AK activity)
[11] = 384-well format, cutoff for positive-scoring molecules 3-fold increase
[12] = cutoff for positive-scoring molecules 3-fold increase, read-out: AK-based Prestwick Library Screening Results, A. baumannii (fold increase in extracellular AK activity)
[13] = cutoff for positive-scoring molecules 3-fold increase, read-out: AK-based Prestwick Library Screening Results, P. aeruginosa (fold increase in extracellular AK activity)
[14] = cutoff for positive-scoring molecules 3-fold increase, read-out: AK-based Prestwick Library Screening Results, E. coli (fold increase in extracellular AK activity)
[15] = cutoff for positive-scoring molecules 3-fold increase, read-out: AK-based Prestwick Library Screening Results, K. pneumoniae (fold increase in extracellular AK activity)
[16] = cutoff for positive-scoring molecules 3-fold increase, read-out: AK-based Prestwick Library Screening Results, S. aureus (fold increase in extracellular AK activity)
[17] = cutoff for positive-scoring molecules 3-fold increase, read-out: AK-based Prestwick Library Screening Results, E. faecium (fold increase in extracellular AK activity)
[18] = cutoff for positive-scoring molecules 3-fold increase, read-out: AK-based Prestwick Library Screening Results, E. cloacae (fold increase in extracellular AK activity)

CC(=O)O[C@H]1C(=O)[C@@]2(C)[C@H]([C@H](OC(=O)c3ccccc3)[C@]3(O)C[C@H](OC(=O)[C@H](O)[C@@H](NC(=O)c4ccccc4)c4ccccc4)C(C)=C1C3(C)C)[C@]1(OC(C)=O)CO[C@@H]1C[C@@H]2O [Paclitaxel]
fold induction at 50 µM ([1]; planktonic A. baumannii, 384-well, cutoff for positive-scoring molecules 3-fold increase, read-out: AK-based Prestwick Library Screening Results: A. baumannii (increase in extracellular AK activity)): 1.3 | fold induction at 50 µM (P. aeruginosa; planktonic P. aeruginosa, 384-well, cutoff for positive-scoring molecules 3-fold increase, read-out: AK-based Prestwick Library Screening Results: P. aeruginosa (increase in extracellular AK activity)): 1 | fold induction at 50 µM (E. coli; planktonic E. coli, 384-well, […], read-out: AK-based Prestwick Library Screening Results: E. coli (increase in extracellular AK activity)): 1.1 | fold induction at 50 µM (K. pneumoniae; planktonic K. pneumoniae, 384-well, cutoff for positive-scoring molecules 3-fold increase, read-out: AK-based Prestwick Library Screening Results: K. pneumoniae (increase in extracellular AK activity)): 1 | fold induction at 50 µM ([2]; planktonic S. aureus, 384-well, cutoff for positive-scoring molecules 3-fold increase, read-out: AK-based Prestwick Library Screening Results: S. aureus (increase in extracellular AK activity)): 1 | fold induction at 50 µM (E. faecium; planktonic E. faecium, 384-well, cutoff for positive-scoring molecules 3-fold increase, read-out: AK-based Prestwick Library Screening Results: E. faecium (increase in extracellular AK activity)): 1 | fold induction at 50 µM (E. cloacae; planktonic E. cloacae, 384-well, cutoff for positive-scoring molecules 3-fold increase, read-out: AK-based Prestwick Library Screening Results: E. cloacae (increase in extracellular AK activity)): 1.6

COc1cc2c(cc1OC)-c1cc3ccc(OC)c(OC)c3c[n+]1CC2 [Palmatine chloride]
fold induction at 50 µM [1, 3]: 0.7 | fold induction at 50 µM (P. aeruginosa; [4]): 0.7 | fold induction at 50 µM (E. coli; [5]): 0.7 | fold induction at 50 µM (K. pneumoniae; [6]): 0.5 | fold induction at 50 µM [2, 7]: 0.8 | fold induction at 50 µM (E. faecium; [8]): 1 | fold induction at 50 µM (E. cloacae; [9]): 0.9

CC(=O)O[C@H]1C[C@@H]2CC[C@@H]3[C@H](CC[C@@]4(C)[C@H]3C[C@H]([N+]3(C)CCCCC3)[C@@H]4OC(C)=O)[C@@]2(C)C[C@@H]1[N+]1(C)CCCCC1 [Pancuronium bromide]
fold induction at 50 µM ([1]; planktonic A. baumannii, positive cutoff 3-fold increase, read-out: AK-based Prestwick library screening result, A. baumannii (fold increase in extracellular AK activity)): 1.1 | fold induction at 50 µM (P. aeruginosa; planktonic P. aeruginosa, positive cutoff 3-fold increase, read-out: AK-based Prestwick library screening result, P. aeruginosa (fold increase in extracellular AK activity)): 0.9 | fold induction at 50 µM (E. coli; [10]): 1.1 | fold induction at 50 µM (K. pneumoniae; planktonic K. pneumoniae, positive cutoff 3-fold increase, read-out: AK-based Prestwick library screening result, K. pneumoniae (fold increase in extracellular AK activity)): 1 | fold induction at 50 µM ([2]; planktonic S. aureus, positive cutoff 3-fold increase, read-out: AK-based Prestwick library screening result, S. aureus (fold increase in extracellular AK activity)): 1.1 | fold induction at 50 µM (E. faecium; planktonic E. faecium, positive cutoff 3-fold increase, read-out: AK-based Prestwick library screening result, E. faecium (fold increase in extracellular AK activity)): 1 | fold induction at 50 µM (E. cloacae; planktonic E. cloacae, positive cutoff 3-fold increase, read-out: AK-based Prestwick library screening result, E. cloacae (fold increase in extracellular AK activity)): 1.6

CC(C)(CO)[C@@H](O)C(=O)NCCCO [Panthenol (D)]
AK-based Prestwick Library Screening Results, A. baumannii (increase in extracellular AK activity) [1, 11]: 0.8 | AK-based Prestwick Library Screening Results, P. aeruginosa (increase in extracellular AK activity) (P. aeruginosa; [11]): 0.7 | AK-based Prestwick Library Screening Results, E. coli (increase in extracellular AK activity) (E. coli; [11]): 0.9 | AK-based Prestwick Library Screening Results, K. pneumoniae (increase in extracellular AK activity) (K. pneumoniae; [11]): 0.7 | AK-based Prestwick Library Screening Results, S. aureus (increase in extracellular AK activity) [2, 11]: 0.6 | AK-based Prestwick Library Screening Results, E. faecium (increase in extracellular AK activity) (E. faecium; [11]): 0.8 | AK-based Prestwick Library Screening Results, E. cloacae (increase in extracellular AK activity) (E. cloacae; [11]): 1.0

COc1ccc(Cc2nccc3cc(OC)c(OC)cc23)cc1OC [Papaverine hydrochloride]
fold induction at 50 µM [1, 3]: 0.8 | fold induction at 50 µM (P. aeruginosa; [4]): 1 | fold induction at 50 µM (E. coli; [5]): 0.9 | fold induction at 50 µM (K. pneumoniae; [6]): 0.8 | fold induction at 50 µM [2, 7]: 0.6 | fold induction at 50 µM (E. faecium; [8]): 1 | fold induction at 50 µM (E. cloacae; [9]): 0.9

CCCCc1ccc2[nH]c(NC(=O)OC)nc2c1 [Parbendazole]
fold induction at 50 µM ([1]; planktonic A. baumannii, […], read-out: AK-based Prestwick library screening result, A. baumannii (fold increase in extracellular AK activity)): 0.8 | fold induction at 50 µM (P. aeruginosa; planktonic P. aeruginosa, […], read-out: AK-based Prestwick library screening result, P. aeruginosa (fold increase in extracellular AK activity)): 0.7 | fold induction at 50 µM (E. coli; [10]): 0.7 | fold induction at 50 µM (K. pneumoniae; planktonic K. pneumoniae, […], read-out: AK-based Prestwick library screening result, K. pneumoniae (fold increase in extracellular AK activity)): 0.7 | fold induction at 50 µM ([2]; planktonic S. aureus, […], read-out: AK-based Prestwick library screening result, S. aureus (fold increase in extracellular AK activity)): 0.7 | fold induction at 50 µM (E. faecium; planktonic E. faecium, […], read-out: AK-based Prestwick library screening result, E. faecium (fold increase in extracellular AK activity)): 0.6 | fold induction at 50 µM (E. cloacae; planktonic E. cloacae, […], read-out: AK-based Prestwick library screening result, E. cloacae (fold increase in extracellular AK activity)): 1.2

C#CCN(C)Cc1ccccc1 [Pargyline hydrochloride]
fold induction at 50 µM ([1]; 384-well format, cutoff for positive-scoring molecules 3-fold increase, read-out: AK-based Prestwick Library Screening Results, A. baumannii (increase in extracellular AK activity)): 0.9 | fold induction at 50 µM (P. aeruginosa; 384-well format, cutoff for positive-scoring molecules 3-fold increase, read-out: AK-based Prestwick Library Screening Results, P. aeruginosa (increase in extracellular AK activity)): 1 | fold induction at 50 µM (E. coli; 384-well format, cutoff for positive-scoring molecules 3-fold increase, read-out: AK-based Prestwick Library Screening Results, E. coli (increase in extracellular AK activity)): 1 | fold induction at 50 µM (K. pneumoniae; 384-well format, cutoff for positive-scoring molecules 3-fold increase, read-out: AK-based Prestwick Library Screening Results, K. pneumoniae (increase in extracellular AK activity)): 0.8 | fold induction at 50 µM ([2]; 384-well format, cutoff for positive-scoring molecules 3-fold increase, read-out: AK-based Prestwick Library Screening Results, S. aureus (increase in extracellular AK activity)): 0.8 | fold induction at 50 µM (E. faecium; 384-well format, cutoff for positive-scoring molecules 3-fold increase, read-out: AK-based Prestwick Library Screening Results, E. faecium (increase in extracellular AK activity)): 0.9 | fold induction at 50 µM (E. cloacae; 384-well format, cutoff for positive-scoring molecules 3-fold increase, read-out: AK-based Prestwick Library Screening Results, E. cloacae (increase in extracellular AK activity)): 0.9

NC[C@@H]1O[C@H](O[C@H]2[C@@H](O)[C@H](O[C@@H]3[C@@H](O)[C@H](N)C[C@H](N)[C@H]3O[C@H]3O[C@H](CO)[C@@H](O)[C@H](O)[C@H]3N)O[C@@H]2CO)[C@H](N)[C@@H](O)[C@@H]1O [Paromomycin sulfate]
fold induction at 50 µM [1, 12]: 1.5 | fold induction at 50 µM (P. aeruginosa; [13]): 1 | fold induction at 50 µM (E. coli; [14]): 1.4 | fold induction at 50 µM (K. pneumoniae; [15]): 1 | fold induction at 50 µM [2, 16]: 1.3 | fold induction at 50 µM (E. faecium; [17]): 0.9 | fold induction at 50 µM (E. cloacae; [18]): 1.4

Fc1ccc([C@@H]2CCNC[C@H]2COc2ccc3c(c2)OCO3)cc1 [Paroxetine Hydrochloride]
fold induction at 50 µM [1, 12]: 1.3 | fold induction at 50 µM (P. aeruginosa; [13]): 1.3 | fold induction at 50 µM (E. coli; [14]): 1.4 | fold induction at 50 µM (K. pneumoniae; [15]): 1.2 | fold induction at 50 µM [2, 16]: 1.4 | fold induction at 50 µM (E. faecium; [17]): 0.9 | fold induction at 50 µM (E. cloacae; [18]): 1.6
